The record followed here is ChEMBL document CHEMBL1155255, “Ruthenium complexes endowed with potent anti-Trypanosoma cruzi activity: Synthesis, biological characterization and structure-activity relationships” (Bioorg Med Chem, 2009).

For data set [1], the system named is Trypanosoma cruzi. The data set can be described thus: Antitrypanosomal activity against Trypanosoma cruzi Y epimastigote form after 11 days by Trypan blue exclusion method. The data set is classed as functional, organism-based. Particulars: 264 h.
Data set [2] in a line: Cytotoxicity against BALB/c mouse splenocytes after 24 hrs by [3H]thymidine incorporation assay. Type of data set: cell-based. Particulars: splenocyte.
For data set [3], the system named is Trypanosoma cruzi. The data set can be described thus: Antitrypanosomal activity against Trypanosoma cruzi Y trypomastigote form after 24 hrs by Trypan blue exclusion method. The data set is classed as functional, organism-based.

Structures are written as SMILES.

Regarding `O=C1CSC(N/N=C\CSc2ccc(Br)cc2)=N1`, half-maximal inhibition in the data set on Trypanosoma cruzi [1] (IC50) was put at 42.9 µM. This compound also came in with an Activity in data set [2] above 100 µg/mL.

For the compound `Cc1ccc(SC/C=N\NC2=NC(=O)CS2)cc1`, the 50% inhibitory concentration (IC50) with Trypanosoma cruzi [3] turned out to be 20 µM; in the data set with Trypanosoma cruzi [1], 92.3 µM. In data set [2], the Activity is above 100 µg/mL.

For the compound `O=C1CSC(N/N=C\CCSc2ccccc2)=N1`, the IC50 with Trypanosoma cruzi [3] was found to be 10 µM; with Trypanosoma cruzi [1], 2.9 µM. Also, in data set [2], the Activity was above 100 µg/mL.

In the case of `Cc1ccc(SC/C=N\NC2=NC(=O)C(C)S2)cc1` (stereo unspecified), the IC50 with Trypanosoma cruzi [3] turned out to be 84.8 µM; in the data set on Trypanosoma cruzi [1], 63.4 µM. Also, in data set [2], the Activity was above 100 µg/mL.

Take `O=C1CSC(N/N=C\CSc2ccccc2)=N1`: the concentration for half-maximal inhibition (IC50) was found to be 7.8 µM with Trypanosoma cruzi [3] and 35 µM in the data set on Trypanosoma cruzi [1]. Further, in data set [2], the Activity was above 100 µg/mL.

With `O=C1CSC(N/N=C\CSc2ccc(Cl)cc2)=N1`, the figures for the IC50 with Trypanosoma cruzi [3] and with Trypanosoma cruzi [1] were 82.4 µM and 43.9 µM, respectively. The same compound returned an Activity in data set [2] above 100 µg/mL.

Turning to `CCC1SC(N/N=C\CSc2ccccc2)=NC1=O` (stereo unspecified), the IC50 with Trypanosoma cruzi [3] was determined as 48.2 µM; in the data set on Trypanosoma cruzi [1], 0.3 µM. For the same compound, in data set [2], the Activity is above 100 µg/mL.

In the data set with Trypanosoma cruzi [1], `C/C(CSc1ccccc1)=N/NC1=NC(=O)C(C)S1` (stereo unspecified) registered an IC50 of 83.3 µM. In addition, the Activity in data set [2] is above 100 µg/mL.

As to `O=C(Cn1ccnc1[N+](=O)[O-])NCc1ccccc1` [BENZNIDAZOLE], in the data set with Trypanosoma cruzi [1], half-maximal inhibition (IC50) required 6.6 µM. In data set [2], this compound showed an Activity of 25 µg/mL.

With `CC1CS(=O)(=O)CCN1/N=C/c1ccc([N+](=O)[O-])o1` (stereo unspecified) [NIFURTIMOX], the 50% inhibitory concentration (IC50) with Trypanosoma cruzi [1] turned out to be 1.9 µM. The same compound had an Activity in data set [2] of 1 µg/mL.
